Laboratory results from US20240043386A1, “Modulators of the Cystic Fibrosis Transmembrane Conductance Regulator Protein and Methods of Use” (AbbVie Global Enterprises Ltd., priority 2021, published 2024).
pEC50: −log10 of the molar value. Read-outs that look alike come from different tables or passages of the source.

What was measured:
F508del/F508del CFTR = molecular target: T1, F508del/F508del CFTR (Homo sapiens, UniProt P13569, DEL508-508); assay: Trans-Epithelial Current Clamp (TECC) assay using primary human bronchial epithelial cells; type: cell-based; settings: for Emax (% Dual): maximum percent activity relative to positive control (co-corrector 0.15 μM + potentiator 0.45 μM = 100%), primary hBE cells F508del/F508del; for pEC50: primary hBE cells homozygous F508del/F508del, test C2 corrector with co-corrector and potentiator, 18-24 hours at 37° C., equivalent CFTR current (IEQ)/AUC
T1 construct: cells isolated from CF patients with the homozygous mutation; endogenous in cells; host or cells: primary human bronchial epithelial (hBE) cells from CF patients homozygous for F508del
Method in brief: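 Readout is the equivalent CFTR current (IEQ, from offset-corrected VT and RT) plus AUC from forskolin peak to bumetanide addition, recorded on TECC-24 at 36.5° C. Beforehand, homozygous F508del hBE cultures received correctors with co-corrector and potentiator basolaterally for 18-24 h at 37° C.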

F508delCFTR = molecular target: T2, F508delCFTR (Homo sapiens, UniProt P13569, DEL508-508); assay: Cell Surface Expression-Horse Radish Peroxidase (CSE-HRP) assay in CFBE41o-F508delCFTR-HRP cells; type: cell-based; settings: for pEC50: CFBE41o-F508delCFTR-HRP cells, 18-24 hours at 33° C., luminescence; for Maximum % activity (with co-corrector) / Maximum % activity (without co-corrector): normalized to on-plate positive control corrector (2 μM)
T2 construct: expressed in transfected cells; host or cells: CFBE41o- human lung-derived epithelial cell line, doxycycline-inducible expression
Method in brief: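 Test compounds were tested alone or alongside a co-corrector (2 μM), 8-point 3-fold series from 20 or 30 μM, for 18–24 h at 33 °C on doxycycline-induced CFBE41o-F508delCFTR-HRP cells. After washing, luminol luminescence reported cell-surface HRP-tagged CFTR, normalized to the positive control (% activity). EC50 was fitted with a variable Hill slope sigmoid from triplicate plates; Z′ >0.5 required.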

[1] = with co-corrector (2 μM), read-out: EC50 (with co-corrector)
[2] = without co-corrector, read-out: EC50 (without co-corrector)

T1 sequence (P13569 with tags, fused parts or gaps DEL508-508): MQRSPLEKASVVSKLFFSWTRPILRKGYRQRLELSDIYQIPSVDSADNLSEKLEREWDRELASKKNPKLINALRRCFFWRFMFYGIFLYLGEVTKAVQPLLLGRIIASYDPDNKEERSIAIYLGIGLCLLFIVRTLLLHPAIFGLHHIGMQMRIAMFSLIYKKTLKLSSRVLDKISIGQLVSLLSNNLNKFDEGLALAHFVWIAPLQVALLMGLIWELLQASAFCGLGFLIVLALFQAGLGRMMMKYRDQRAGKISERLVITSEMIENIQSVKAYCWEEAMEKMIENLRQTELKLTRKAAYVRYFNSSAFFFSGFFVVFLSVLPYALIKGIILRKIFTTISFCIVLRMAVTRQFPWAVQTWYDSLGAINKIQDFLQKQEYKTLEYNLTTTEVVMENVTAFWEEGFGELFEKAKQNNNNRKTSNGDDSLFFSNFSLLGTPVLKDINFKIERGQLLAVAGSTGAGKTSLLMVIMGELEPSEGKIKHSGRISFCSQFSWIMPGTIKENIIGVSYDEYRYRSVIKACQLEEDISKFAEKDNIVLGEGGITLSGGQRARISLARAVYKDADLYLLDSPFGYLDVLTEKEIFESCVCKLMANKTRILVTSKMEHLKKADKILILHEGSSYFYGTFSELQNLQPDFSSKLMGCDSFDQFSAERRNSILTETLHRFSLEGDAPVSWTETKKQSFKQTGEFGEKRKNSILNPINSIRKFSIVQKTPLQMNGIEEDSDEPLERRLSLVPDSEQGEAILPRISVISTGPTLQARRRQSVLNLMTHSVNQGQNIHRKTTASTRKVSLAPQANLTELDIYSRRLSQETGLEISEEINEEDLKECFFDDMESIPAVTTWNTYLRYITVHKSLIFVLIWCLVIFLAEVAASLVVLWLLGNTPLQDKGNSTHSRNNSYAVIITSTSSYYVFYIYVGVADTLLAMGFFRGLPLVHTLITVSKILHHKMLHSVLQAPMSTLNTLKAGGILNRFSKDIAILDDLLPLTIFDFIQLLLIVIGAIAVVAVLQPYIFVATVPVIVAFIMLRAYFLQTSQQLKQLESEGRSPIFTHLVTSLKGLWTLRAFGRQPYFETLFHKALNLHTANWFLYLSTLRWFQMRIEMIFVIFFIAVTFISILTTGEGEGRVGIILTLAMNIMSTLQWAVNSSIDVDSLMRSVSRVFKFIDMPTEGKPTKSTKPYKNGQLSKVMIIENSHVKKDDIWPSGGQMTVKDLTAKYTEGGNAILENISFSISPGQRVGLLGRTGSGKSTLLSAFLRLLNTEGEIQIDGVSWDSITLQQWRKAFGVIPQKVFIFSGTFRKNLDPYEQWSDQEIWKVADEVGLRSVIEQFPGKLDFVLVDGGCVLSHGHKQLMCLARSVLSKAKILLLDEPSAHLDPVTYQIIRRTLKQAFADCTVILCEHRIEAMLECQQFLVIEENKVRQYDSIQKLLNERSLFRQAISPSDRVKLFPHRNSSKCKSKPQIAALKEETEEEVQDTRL
T2 sequence (P13569 with tags, fused parts or gaps DEL508-508): as above

| Structure (SMILES) | Emax (% Dual) (F508del/F508del CFTR) | pEC50 (F508del/F508del CFTR) | pEC50 (F508delCFTR; [1]) | Maximum % activity (with co-corrector) (F508delCFTR; with co-corrector (2 μM)) [%] | pEC50 (F508delCFTR; [2]) | Maximum % activity (without co-corrector) (F508delCFTR; without co-corrector) [%] |
| --- | --- | --- | --- | --- | --- | --- |
| COc1ccc(C)cc1[C@@]1(C(=O)NS(=O)(=O)c2cccc3nc(C)ccc23)C[C@H]1c1cnc(C)c(F)c1 (single isomer, unassigned) [Example 101] | 199 | 6.83 | 6.05 | 842 | 6.00 | 243 |
| COc1ccc(C)cc1[C@]1(C(=O)NS(=O)(=O)c2cccc3nc(C)ccc23)CC1c1cccc(Cl)n1 (stereo in doubt) [Example 105, (1S,2S)-2-(6-chloropyridin-2-yl)-1-(2-methoxy-5-methylphenyl)-N-(2-methylquinoline-5-sulfonyl)cyclopropane-1-carboxamide] | 296 | 8.51 | 6.56 |  | 5.84 |  |
| CCOc1nc(C2C[C@@]2(C(=O)NS(=O)(=O)c2cccc3nc(C)ccc23)c2cc(C)ccc2OC)ccc1F (stereo in doubt) [Example 106, (1S,2S)-2-(6-ethoxy-5-fluoropyridin-2-yl)-1-(2-methoxy-5-methylphenyl)-N-(2-methylquinoline-5-sulfonyl)cyclopropane-1-carboxamide] | 188 | 7.94 | 6.65 |  |  |  |
| COc1ccc(C)cc1[C@]1(C(=O)NS(=O)(=O)c2cccc3nc(C)ccc23)C[C@@H]1c1ccc(C)nc1 [Example 11, (1S,2R)-1-(2-methoxy-5-methylphenyl)-2-(6-methylpyridin-3-yl)-N-(2-methylquinoline-5-sulfonyl)cyclopropane-1-carboxamide] | 214 | 7.31 | 5.55 |  | 5.34 | 679 |
| COc1ccc(C)cc1[C@]1(C(=O)NS(=O)(=O)c2cccc3nc(C)ccc23)C[C@@H]1c1ccccn1 [Example 14, (1S,2S)-1-(2-methoxy-5-methylphenyl)-N-(2-methylquinoline-5-sulfonyl)-2-(pyridin-2-yl)cyclopropane-1-carboxamide] | 165 | 6.10 | 5.55 |  | 5.42 | 520 |
| COc1ccc([C@H]2C[C@@]2(C(=O)NS(=O)(=O)c2cccc3nc(C)ccc23)c2cc(C)ccc2OC)cn1 [Example 32, (1S,2R)-1-(2-methoxy-5-methylphenyl)-2-(6-methoxypyridin-3-yl)-N-(2-methylquinoline-5-sulfonyl)cyclopropane-1-carboxamide] | 259 | 8.04 | 5.84 |  | 5.53 |  |
| COc1ccc([C@@H]2C[C@]2(C(=O)NS(=O)(=O)c2cccc3nc(C)ccc23)c2cc(C)ccc2OC)cn1 [Example 33, (1R,2S)-1-(2-methoxy-5-methylphenyl)-2-(6-methoxypyridin-3-yl)-N-(2-methylquinoline-5-sulfonyl)cyclopropane-1-carboxamide] | 215 | 7.31 | 6.04 |  | 5.90 | 470 |
| COc1cccc([C@H]2C[C@@]2(C(=O)NS(=O)(=O)c2cccc3nc(C)ccc23)c2cc(C)ccc2OC)n1 [Example 43, (1s,2s)-1-(2-methoxy-5-methylphenyl)-2-(6-methoxypyridin-2-yl)-N-(2-methylquinoline-5-sulfonyl)cyclopropane-1-carboxamide] | 272 | 8.54 | 6.09 |  | 5.62 |  |
| COc1cccc([C@@H]2C[C@]2(C(=O)NS(=O)(=O)c2cccc3nc(C)ccc23)c2cc(C)ccc2OC)n1 [Example 44, (1R,2R)-1-(2-methoxy-5-methylphenyl)-2-(6-methoxypyridin-2-yl)-N-(2-methylquinoline-5-sulfonyl)cyclopropane-1-carboxamide] | 193 | 7.78 | 6.06 | 982 | 5.85 | 384 |
| COc1ccc(C)cc1[C@@]1(C(=O)NS(=O)(=O)c2cccc3nc(C)ccc23)C[C@H]1c1cccnc1OC [Example 49, (1R,2S)-1-(2-methoxy-5-methylphenyl)-2-(2-methoxypyridin-3-yl)-N-(2-methylquinoline-5-sulfonyl)cyclopropane-1-carboxamide] | 321 | 7.45 | 5.93 |  | 5.70 | 453 |
| CCOc1cccc([C@H]2C[C@@]2(C(=O)NS(=O)(=O)c2cccc3nc(C)ccc23)c2cc(C)ccc2OC)n1 [Example 55, (1S,2S)-2-(6-ethoxypyridin-2-yl)-1-(2-methoxy-5-methylphenyl)-N-(2-methylquinoline-5-sulfonyl)cyclopropane-1-carboxamide] | 341 | 8.23 | 6.47 |  | 6.00 |  |
| CCOc1ccc([C@H]2C[C@@]2(C(=O)NS(=O)(=O)c2cccc3nc(C)ccc23)c2cc(C)ccc2OC)cn1 [Example 58, (1S,2R)-2-(6-ethoxypyridin-3-yl)-1-(2-methoxy-5-methylphenyl)-N-(2-methylquinoline-5-sulfonyl)cyclopropane-1-carboxamide] | 246 | 7.50 | 5.67 |  | 5.41 |  |
| COc1ccc(C)cc1[C@]1(C(=O)NS(=O)(=O)c2cccc3nc(C)ccc23)C[C@@H]1c1ccc(C(C)C)nc1 [Example 67, (1S,2R)-1-(2-methoxy-5-methylphenyl)-N-(2-methylquinoline-5-sulfonyl)-2-[6-(propan-2-yl)pyridin-3-yl]cyclopropane-1-carboxamide] | 174 | 7.68 | 5.79 | 989 | 5.48 | 492 |

The remaining lines, values ahead:

| Emax (% Dual) (F508del/F508del CFTR) | pEC50 (F508del/F508del CFTR) | pEC50 (F508delCFTR; [1]) | Maximum % activity (with co-corrector) (F508delCFTR; with co-corrector (2 μM)) [%] | pEC50 (F508delCFTR; [2]) | Maximum % activity (without co-corrector) (F508delCFTR; without co-corrector) [%] | Structure (SMILES) |
| --- | --- | --- | --- | --- | --- | --- |
| 232 | 7.24 | 5.83 |  | 5.61 |  | COc1ccc(C)cc1[C@@]1(C(=O)NS(=O)(=O)c2cccc3nc(C)ccc23)C[C@H]1c1ccccn1 [Example 13, (1R,2R)-1-(2-methoxy-5-methylphenyl)-N-(2-methylquinoline-5-sulfonyl)-2-(pyridin-2-yl)cyclopropane-1-carboxamide] |
| 459 | 8.54 | 6.41 |  | 6.11 |  | COc1ccc(C)cc1[C@]1(C(=O)NS(=O)(=O)c2cccc3nc(C)ccc23)C[C@@H]1c1ccccc1C [Example 34, (1S,2R)-1-(2-methoxy-5-methylphenyl)-2-(2-methylphenyl)-N-(2-methylquinoline-5-sulfonyl)cyclopropane-1-carboxamide] |
| 290 | 8.07 | 6.41 | 917 | 6.05 | 370 | CCOc1cccc([C@@H]2C[C@]2(C(=O)NS(=O)(=O)c2cccc3nc(C)ccc23)c2cc(C)ccc2OC)n1 [Example 56, (1R,2R)-2-(6-ethoxypyridin-2-yl)-1-(2-methoxy-5-methylphenyl)-N-(2-methylquinoline-5-sulfonyl)cyclopropane-1-carboxamide] |
| 253 | 7.72 | 6.29 |  | 5.95 |  | COc1ccc(C)cc1[C@]1(C(=O)NS(=O)(=O)c2cccc3nc(C)ccc23)C[C@@H]1c1cccc(C(C)C)n1 [Example 57, (1S,2S)-1-(2-methoxy-5-methylphenyl)-N-(2-methylquinoline-5-sulfonyl)-2-[6-(propan-2-yl)pyridin-2-yl]cyclopropane-1-carboxamide] |
| 161 | 7.20 | 6.11 |  | 5.82 | 438 | CCOc1ccc([C@@H]2C[C@]2(C(=O)NS(=O)(=O)c2cccc3nc(C)ccc23)c2cc(C)ccc2OC)cn1 [Example 59, (1R,2S)-2-(6-ethoxypyridin-3-yl)-1-(2-methoxy-5-methylphenyl)-N-(2-methylquinoline-5-sulfonyl)cyclopropane-1-carboxamide] |
| 413 | 8.17 | 5.99 |  | 5.67 |  | COc1ccc(C)cc1[C@]1(C(=O)NS(=O)(=O)c2cccc3nc(C)ccc23)C[C@@H]1c1cccc(N(C)C)n1 [Example 60, (1S,2S)-2-[6-(dimethylamino)pyridin-2-yl]-1-(2-methoxy-5-methylphenyl)-N-(2-methylquinoline-5-sulfonyl)cyclopropane-1-carboxamide] |
